In patent US11499168B2, “Allele editing and applications thereof” (UNIVERSITÄT BASEL, priority 2016, dated 2022):
One block for each compound: values may come before it.

Columns and labels:
[1] = Water solubility of HDR enhancing reagents; type: physicochemical
[2] = tested on: EL-4 cells; details: vanillin vs absence of vanillin; templates 160 bp, 1 kb, 2 kb, 4 kb; FIG. 2F
[3] = tested on: Foxp3K276X mutation; assay: Foxp3 gene repair in Foxp3K276X CD4+ T cells, flow cytometry of CD25 and Foxp3; type: cell-based, mouse
Excerpt: A) Alignment of genomic DNA sequences of wildtype foxp3 (C57BL/6) (SEQ ID NO 038), the Foxp3 locus with a targeted mutation Foxp3K276X (SEQ ID NO 039) which introduces a premature stop codon and the Foxp3 locus of scurfy mice (B6.Cg-Foxp3sf/J) which harbor a spontaneous 2 bp insertion leading to a frame-shift (SEQ ID NO 040). sgRNA binding sites (green line) and PAM sequences (black line). B) Protocol for gene editing of total CD4+ T cells from Foxp3K276X C57BL/6 mice. In vitro activation and electroporation (step 1) with plasmids encoding sgRNA targeting the Foxp3K276X mutation and a circular plasmid containing a 1 kb wildtype (wt) Foxp3 repair template. Successfully transfected cells are isolated based on GFP expression (step 2). Cell expansion in vitro for gene editing in presence of rhIL-2, TGF-β alone or in combination with retinoic acid (RA) and cytokine neutralizing antibodies (anti-IL-4 and anti-IFNγ for 7 days (step 3). C) Experimental setup as in B with total CD4+ T cells from control mice (WT) or Foxp3K276X mice. Flow cytometry of CD25 and Foxp3 expression (gated on live CD4+ T cells). […] Top row: Foxp3 induction with TGF-β alone, bottom row: Foxp3 induction with TGF-β combined with RA. […]

[4] = tested on: CD90.1; assay: CD90.1 gene deletion by sgRNA in Balb/c CD4+ T cells, flow cytometry; details: sgRNA alone, no template; FIG. 2A

water solubility [1]: only water soluble compound
Compound: COc1cc(C=O)ccc1O [vanillin, 4-Hydroxy-3-methoxybenzaldehyde]
HDR enhancing effect as a function of dsDNA template length [2]: more pronounced for shorter templates

Compound: Foxp3K276X: sgRNA GCAAGATATCTAGTCCATTG targeting the Foxp3K276X mutation (chemistry not given here)
Foxp3 expression, cells ([3]; Foxp3K276X CD4+ T cells, Foxp3 induction with TGF-β alone, FIG. 4C top): no Foxp3^+ cells were detected
Foxp3 protein expression ([3]; Foxp3K276X cells, FIG. 4C): absence of Foxp3 differentiation

Compound: CD90.1: sgRNA GTTTGTGAGCTTGGAGTCTG targeting CD90.1 (guide GTTTGTGAGCTTCGAGTCTC; listed as DNA, chemistry not fully specified)
gene deletion in successfully transfected cells [4]: about 20%
